≈ marks a conversion by molar mass, not a printed value. Where two headings read alike, the source gives them in different places.
What was measured:
[1] = test system: normal human melanocytes; test: Melanin production inhibition test using cultured normal human melanocytes (14C-thiouracil incorporation); assay type: cell-based; details: Homo sapiens, Melanocyte; for activity at 5 µM: addition amount 5.0 μM
Experimental: The inhibitory effect on melanin production of the melanin production inhibitor of the present invention can be measured using thiouracil which is incorporated specifically into cells in a melanin synthesis process in the cells. For example, the amount of melanin production can be measured by measuring an amount of thiouracil incorporated into cells by measuring an amount of radiation with radiolabeled thiouracil.
The inhibitory effect on melanin production of Compound 1 was evaluated using 2-thiouracil (^14C-labeled 2-thiouracil was used in this test) which is incorporated specifically into melanin in an intracellular melanin synthesis process. Complete medium for culture of melanocytes (manufactured by Kurabo Industries Ltd.) was added to 15 wells in a 24-well plate in an amount of 2 mL per well, and normal human melanocytes (manufactured by Kurabo Industries Ltd.) were seeded into the wells at a concentration of 1.5×10^4 cells/cm^2. The cells were cultured in a 5% carbon dioxide atmosphere at 37° C. for 24 hours. Thereafter, the medium in all the wells was exchanged under the following conditions: fresh complete medium for culture of melanocytes (control) was used in three wells; each of complete medium for culture of melanocytes, which including Compound 1 at concentrations of 1.0 μM, 2.0 μM, and 4.0 μM, was used in a total of nine wells including three wells for each concentration; and complete medium for culture of melanocytes, each of which including arbutin (positive control) known as a melanin production inhibitor at a concentration of 0.5 mM (500 μM), was used in the other three wells. Further, 2-[2-^14C]thiouracil (^14C-labeled thiouracil) was added to each of these 15 wells at 0.25×10^−6 Ci (curie). Then, the cells were cultured for further 3 days under the same conditions as the above. After the completion of culture, the culture medium was removed from the wells, and the cells were washed with phosphate buffered physiological saline (PBS) and then separated from the bottoms of the wells with medium including trypsin and EDTA to prepare cell suspensions, followed by centrifugation to collect the cells. The number of the cells was counted using a hemocytometer. Thereafter, the amounts of ^14C-thiouracil in the cells collected from each well (0.25×10^−6 Ci) were measured using a liquid scintillation counter (ALOKA CO., LTD.). The percentages of an amount of radioactivity in the cells cultured in the medium including the test substances with respect to an amount of radioactivity in the cells collected from the well of the control were calculated as amounts of melanin (%). That is, as the amount of radioactivity incorporated into the cells is smaller, the amount of melanin is evaluated to be smaller, i.e., the melanin inhibition effect of the component added is evaluated to be larger.
Inhibitory effects on melanin production of Compounds 2 to 39 (however, the effects of Compound 9 and 15 were not measured) were examined in the same procedure as in Test Example 1.
These were examined in the same procedure as in Test Example 1.
Further, the results of melanin production inhibition by treatment with the respective test compounds, determined in the same procedure as in Test Example 1, are also shown in the table.

[2] = test system: ultraviolet ray-induced pigmentation; test: Ultraviolet ray-induced pigmentation inhibition test using pigmented guinea pigs; assay type: in vivo; details: for ΔL* value: 1% (w/v) in ethanol, 30 μL once a day for 6 weeks, L* day 57 minus L* day 15, mean ± SD of eight animals; for inhibition of pigmentation induced by ultraviolet rays (in words): applied to the skin at a concentration of 1%
Text: The hair of the dorsal skin of each of eight pigmented guinea pigs was removed and shaved using an electrical hair clipper and shaver, and each of the sites was covered with a black cloth having a total of four (two on the top and bottom and two on the right and left) irradiation windows with a size of 2×2 cm, and then irradiated with ultraviolet rays of 300 mJ/cm^2 using FL20S•E30 lamp as a light source. This operation was repeated on days 1, 3, 5, 8, 10, and 12 after the start of the test to induce pigmentation on the four test sites.
Compound 2, Compound 3, and Compound 4 were dissolved in ethanol at a concentration of 1% (w/v) to prepare samples for application. Further, as a control, ethanol was used alone as a sample for application.
On day 15 of the test, application of the samples was started. The respective samples were applied to the predetermined test sites once a day in an amount of 30 μL, and the application was continued for 6 weeks (until day 56 of the test).
On the day of the start of application (day 15 of the test) and after the completion of application for 6 weeks (on day 57 of the test), the skin brightness (L* value) of each of the test sites was measured using a colorimeter (CR-200, Konica Minolta Holdings, Inc.), and a ΔL* value was calculated by subtracting an L* value on day 15 of the test from an L* value on day 57 of the test. […] As degree of the pigmentation becomes stronger, the L* value becomes smaller. Therefore, it can be evaluated that, as the ΔL* value becomes larger, pigmentation is more inhibited.

[3] = test system: Trichopyton mentagrophytes (ATCC18748); test: Measurement of antimycotic activity (Alamar Blue growth inhibition of dermatophytes); assay type: cell-based; details: for MIC80: read-out: MIC80 Concentration
Experimental: 10.4 g of RPMI1640 (manufactured by SAFC Biosciences) were dissolved in 900 mL of distilled water, and 34.53 g of a 0.165 M MOPS buffer (manufactured by DOJINDO LABORATORIES) were added and dissolved by stirring.
Dermatophytes (Trichopyton mentagrophytes (ATCC18748)) were inoculated into a 1/10 Sabouraud Dextrose agar medium (manufactured by DIFCO) and cultured at 28° C. for 14 days, and then a conidial suspension was prepared using 0.1% Tween80-including physiological saline. The suspension was filtered through gauze, and the number of the conidia was counted using a hemocytometer and then adjusted to 2.5×10^5/mL with the RPMI1640 medium. The resultant suspension was used as an inoculum.
Compound 5 and clotrimazole were diluted with the RPMI1640 medium to prepare 0.3125, 0.625, 1.25, 2.5, 5, 10, 20, and 200 μg/mL diluted solutions. The diluted solutions having different concentrations were dispensed into a 96-well flat-bottom microplate in an amount of 100 μL per well, and 80 μL of the inoculum and 20 μL of an Alamar Blue solution (manufactured by Nalgene) were further added thereto. Further, 80 μL of the inoculum and 20 μL of the Alamar Blue solution were added to 100 μL of the RPMI1640 medium in growth control wells, and 20 μL of the Alamar Blue solution was added to 180 μL of the RPMI1640 medium in negative control wells. The microplate was placed in a chamber in which the humidity was kept constant, and culture was started at 27° C., and the cells were observed every 24 hours. 120 hours from beginning of culture, i.e., when the growth control became obviously red (reduced form), absorbance measurement at 570 nm was performed using a microplate reader (SPECTRAMAX 250, manufactured by Molecular Device).
The test compounds were tested at the respective concentrations in triplicate. The growth inhibition rate (%) of each of the test compound-added groups was determined by the following equation based on a value calculated by subtracting an average absorbance value of the negative control from an average absorbance value of the growth control and the test compound-added wells. Further, […] (minimum inhibitory concentration; the minimum concentration at which the growth inhibition rate is 80% or more) was calculated from the growth inhibition rate of each test compound. Growth inhibition rate (%)=[1−(average absorbance value in test compound-added wells-average absorbance value of negative control)/(average absorbance value of growth control-average absorbance value of negative control)]×100
Compound 1, Compounds 3 to 6, Compound 40, Compound 41, triphenylmethylamine, triphenylmethanol, triphenylmethane, aminodiphenylmethane, and clotrimazole were diluted with the RPMI1640 medium to prepare 0.3125, 0.625, 1.25, 2.5, 5, 10, 20, and 200 μg/mL diluted solutions. The diluted solutions having different concentrations were dispensed into a 96-well flat-bottom microplate in an amount of 100 μl, per well, and 80 μL of the inoculum and 20 μl, of an Alamar Blue solution (manufactured by Nalgene) were further added thereto. Further, 80 μl, of the inoculum and 20 μl, of the Alamar Blue solution were added to 100 μL of the RPMI1640 medium in growth control wells, and 20 μL of the Alamar Blue solution was added to 180 μL of the RPMI1640 medium in negative control wells. The microplate was placed in a chamber in which the humidity was kept constant, and then culture was started at 27° C., and the cells were observed every 24 hours. 120 hours from beginning of culture, i.e., when the growth control became obviously red (reduced form), absorbance measurement at 570 nm was performed using a microplate reader (SPECTRAMAX 250, manufactured by Molecular Device).
The test compounds were tested at the respective concentrations in triplicate. […]

[4] = minimum concentration at which the growth inhibition rate is 80% or more

Row | Compound | activity at 5 µM ([1]; Table 2, control = 100%) | ΔL* value [2] | inhibition of pigmentation induced by ultraviolet rays (in words) [2] | growth inhibitory effect on Trichopyton mentagrophytes (in words) ([3]; added at a concentration of 100 μg/mL) | MIC80 [3, 4] | activity at 10 µM ([1]; Table 7, treatment concentration 10 μM, read-out: Amount of melanin) | MIC80 Concentration [3, 4] | activity at 2 µM ([1]; Table 7, treatment concentration 2 μM, read-out: Amount of melanin) | activity at 2 µM ([1]; Table 2, addition amount 2.0 μM, control = 100%)
1 | OCCOC(c1ccccc1)(c1ccccc1)c1ccccc1 [Compound 2, 2-(triphenylmethyloxy)ethanol] | 44 ± 3.2% | 3.9 ± 0.94 | obviously inhibited pigmentation induced by ultraviolet rays |  |  |  |  |  | 
2 | OCCNC(c1ccccc1)(c1ccccc1)c1ccccc1 [Compound 3, 2-(triphenylmethylamino)ethanol] | 51.6 ± 4.2% | 3.9 ± 0.52 | obviously inhibited pigmentation induced by ultraviolet rays | no growth inhibitory effect | > 100 µg/mL | 22.3 ± 0.63% |  |  | 
3 | NCCOC(c1ccccc1)(c1ccccc1)c1ccccc1 [Compound 4, 2-(triphenylmethyloxy)ethylamine] |  | 3.4 ± 0.8 | obviously inhibited pigmentation induced by ultraviolet rays |  | 100 µg/mL (≈ 330 µM) |  | 100.0000 µg/mL (≈ 330 µM) | 34.2 ± 3.58% | 33.8 ± 0.8%

Source: patent US8846012B2, “Melanin production inhibitor” (Pola Chemical Industries Inc., priority 2008, dated 2014)
